Measurements reported in article PMC7990499, “eIF2B conformation and assembly state regulate the integrated stress response” (eLife, 2021).

Biological target: T1, eIF2B decamer, eIF2B(αβδγε)2 (ISRIB pocket at the eIF2Bβ/eIF2Bδ interface) (Homo sapiens, UniProt P49770+Q9UI10)
T1 construct: gene EIF2B2; full eIF2B(αβδγε)2 decamer assembled from purified eIF2Bβγδε and eIF2Bα2; with eIF2Bβ (EIF2B2), with eIF2Bα, eIF2Bγ, eIF2Bε
Test: fluorescence polarization competition with FAM-ISRIB; also FRET assembly of tetramers (EC50 […]), re-refined cryo-EM model
Type: binding

IC50: 37 nM
SMILES: O=C(COc1ccc(Cl)cc1)N[C@H]1CC[C@H](NC(=O)COc2ccc(Cl)cc2)CC1 [ISRIB]
